{"source": "patent US20250082654A1", "about": "“AZD3355 (LESOGABERAN) FOR TREATMENT AND PREVENTION OF NONALCOHOLIC STEATOHEPATITIS (NASH), LIVER FIBROSIS, AND OTHER LIVER CONDITIONS” (Icahn School of Medicine at Mount Sinai, priority 2018, published 2025)", "key": {"LX-2 cells": {"system": "LX-2 cells", "assay": "Cell cytotoxicity assay (MTS)", "type": "cell-based, human", "conditions": "0-300 nM, 24, 48 or 72 hours", "procedure": "(§1) At the beginning of each experiment, stellate cells (LX-2 cells or phHSCs) were serum-starved overnight in DMEM supplied with 0.1% BSA (without antibiotic) to synchronize metabolic activities of the cells. The cells were then exposed to different working concentration of either AZD3355 or sorafenib for 24, 48 and 72 hours.\n(§2) 5,000 LX-2 cells or 10,000 phHSCs were plated per well in 96 well plates. Cells were serum starved overnight in DMEM supplemented with 0.1% BSA (without antibiotic). Cells were then incubated with different concentrations of AZD3355 for indicated durations and MTS assays were accomplished using CellTiter 96 AQueous One Solution Cell Proliferation Assay kit (Promega, WI) according to manufacturer's protocol."}, "phHSCs": {"system": "phHSCs", "assay": "Cell cytotoxicity assay (MTS)", "type": "cell-based, human", "conditions": "30 nM or 100 nM, 48 or 72 hours", "procedure": "as §1, §2"}}, "data": [{"smiles": "NC[C@@H](F)C[PH](=O)O", "note": "[AZD3355, [(2R)-3-amino-2-fluoropropyl] phosphinic acid]", "values": [{"measurement": "cell cytotoxicity (MTS)", "setting": "LX-2 cells", "value": "no significant cell cytotoxicity observed except for in LX-2 cells at 300 nM"}, {"measurement": "cell cytotoxicity (MTS)", "setting": "phHSCs", "value": "no significant cell cytotoxicity"}]}]}
